Test results from patent US20230226013A1, “COMPOSITION AND METHOD FOR TREATING CANCER” (Carmel-Haifa University Economic Corp Ltd., priority 2019, published 2023).

Legend:
[1] = Stability of the isolated compound (solid state; in dichloromethane solution); type: physicochemical; details: solid state conditions at -20° C.
Method: 2. The isolated compound was stable and pure (purity > 95% by HPLC) at solid state conditions at -20° C.
4. During NMR experiments observed partially isomerization of isolated compound. The dissolving in dichloromethane at 20 mg/ml concentration leads to steady state between major and minor isomers with ratio ~75:25. HPLC analyses of NMR solution show only one peak of isolated compound.

[2] = test system: HPAF-II and PL45 human pancreatic cancer cells; test: Annexin-V/PI assay, induction of apoptosis; type: cell-based; details: low doses, 4 hours of exposure
Method: Particularly, Cell death was analyzed by staining the cells with FITC-labeled Annexin V and propedium iodide (PI) using an Annexin V-FITC apoptosis detection kit, (MBL, Nagoya, Japan), according to the manufacturer’s instructions.

[3] = test system: HPAF-II and PL45 human pancreatic cancer cells; test: XTT assay, cell viability / proliferation; type: cell-based
Method: Reference is now made to FIG. 4, presenting the effect of Striatal C on the viability of HPAF-II and PL45 human pancreatic cancer cells, in comparison to the effect of the Cyathus striatus CBS 126585 extract on the same cells, wherein the measurements of the effects are based on an XTT assay. Particularly, cell proliferation was determined using the sodium 3′-[1-(phenylaminocarbonyl)-3,4-tetrazolium]-bis (4-methoxy-6-nitro) benzene sulfonic acid hydrate (XTT) assay, according to the manufacturer’s instructions (Biological Industries, Beit Haemek, Israel).

SMILES	stability at solid state [1]	induction of apoptosis [2]	most effective concentration ([3]; control 0 µg/ml)	effect on cell viability ([3]; low doses, 4 hours of exposure)
CC(C)C1=C2[C@H]3[C@@H](O)C=C(C=O)[C@@H]4C(O[C@@H]5OC[C@@H](O)C(=O)[C@@]54O)[C@]3(C)CC[C@@]2(C)CC1 (stereo partly shown) [isolated compound]	stable	–	–	–
CC(C)C1=C2C3=CC=C(C=O)[C@@H]4C(O[C@@H]5OC[C@@H](O)C(=O)[C@@]54O)[C@]3(C)CC[C@@]2(C)CC1 (stereo partly shown) [Striatal C]	–	induction of apoptosis	10 µg/mL	profound decrease in cell viability
